# Experimental data: patent US7972815B2, “Method of producing sugar chain using human G4 polypeptide” (Kyowa Hakko Kirin Co., Ltd., priority 1999, dated 2011)
# Read-outs that look alike come from different tables or passages of the source.
# Assays:
# [1] = molecular target: T1, β1,3-N-acetylglucosaminyl transferase (G4) (Homo sapiens, UniProt Q9Y2A9, R328H); assay: Substrate specificity of G4 with pyridylaminated oligosaccharides; assay type: biochemical; conditions: for Relative activity (%): pyridylaminated substrate 50 μmol/l, 37° C., 14.5 hours, activity on LNnT defined as 100%
# T1 construct: made in house; host or cells: Sf21 insect cells infected with recombinant baculovirus from pVL1393-F2G4
# T1 sequence (Q9Y2A9 38-372 R328H): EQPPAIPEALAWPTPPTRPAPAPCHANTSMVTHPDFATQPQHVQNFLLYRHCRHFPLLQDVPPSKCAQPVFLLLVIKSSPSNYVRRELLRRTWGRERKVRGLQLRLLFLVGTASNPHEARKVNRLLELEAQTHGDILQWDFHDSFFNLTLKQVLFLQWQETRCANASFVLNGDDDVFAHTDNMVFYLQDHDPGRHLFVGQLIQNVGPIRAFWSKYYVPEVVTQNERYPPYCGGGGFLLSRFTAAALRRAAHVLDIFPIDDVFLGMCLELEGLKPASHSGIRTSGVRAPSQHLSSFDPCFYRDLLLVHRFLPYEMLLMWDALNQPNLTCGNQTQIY
# Protocol: Examination on the substrate specificity of a β1,3-N-acetylglucosaminyl transferase (G4) was carried out by using the FLAG peptide-fused G4 polypeptide produced as a secreted form in Example 10.
# The method shown in Example 8 was used as the activity measuring method. Specifically, after the reaction at 37° C. for 14.5 hours in 30 μl of an assay solution [200 mmol/l of MOPS (pH 7.5), 20 mmol/l of UDP-GlcNAc (SIGMA), 20 mmol/l of MnCl2, 50 μmol/l of pyridylaminated sugar chain substrate and 15 μl of the above eluate], products were detected by HPLC. As substrates, LNnT, lacto-N-tetraose (Galβ1-3GlcNAcβ1-3Galβ1-4Glc, hereinafter referred to as “LNT”), lacto-N-fucopentaose II (Galβ1-3(Fucα1-4)GlcNAcβ1-3Galβ1-4Glc, hereinafter referred to as “LNFP-II”), lacto-N-fucopentaose III (Galβ1-4(Fucα1-3)GlcNAcβ1-3Galβ1-4Glc, hereinafter referred to as “LNFP-III”), lacto-N-fucopentaose V (Galβ1-3GlcNAcβ1-3Galβ1-4(Fucα1-3)Glc, hereinafter referred to as “LNFP-V”) and lacto-N-difucohexaose II (Galβ1-3(Fucα1-4)GlcNAcβ1-3Galβ1-4(Fucα1-3)Glc, hereinafter referred to as “LNDFH-II”) (all manufactured by Oxford Glycosystems) were used after fluorescently labeling them with aminopyridine. Fluorescence labeling of these substrates were carried out in accordance with the usual method [Agric. Biol. Chem., 54, 2169 (1990)].
# (§1) For each substrate, the reaction was carried using the assay solution with or without UDP-GlcNAc (sugar donor), and then HPLC was carried out and peaks appeared only in the assay solution containing UDP-GlcNAc were defined as products.
# The assay solution after completion of the reaction was treated at 100° C. for 5 minutes and then centrifuged at 10,000×g for 5 minutes, and a portion (5 μl) of the thus obtained supernatant was applied to HPLC.
# The HPLC was carried out by using TSK-gel ODS-80Ts column (4.6×300 mm; Tosoh); 0.02 mol/l ammonium acetate buffer (pH 4.0) was used as the eluate at an elution temperature of 50° C. and at a flow rate of 0.5 ml/min.
# Products were detected by using a fluorescence spectrum photometer FP-920 (JASCO Corporation) (excitation wavelength 320 nm, radiation wavelength 400 nm).
# [2] = molecular target: T1, β1,3-N-acetylglucosaminyl transferase (G4); assay: Substrate specificity of G4 with unlabeled oligosaccharides (HPAE/PAD); assay type: biochemical; conditions: for Relative activity (%): unlabeled substrate, 37° C., 16 hours, activity on LNnT defined as 100%
# Protocol: The reaction using the glycosyltransferase was carried out as follows. The reaction was carried out at 37° C. for 16 hours in 40 μl of an assay solution [50 mmol/l MOPS (pH 7.5), 5 mmol/l UDP-GlcNAc (SIGMA), 5 mmol/l MnCl2, […] and 10 μl of the above eluate]. Next, the reaction solution was treated at 100° C. for 5 minutes and then centrifuged at 10,000×g for 20 minutes to obtain the supernatant, and a portion thereof was analyzed using HPAE/PAD (High Performance Anion Pulsed Amperometoric Detection; manufactured by DIONEX). The specific method was carried out in the usual way [Anal. Biochem., 189, 151 (1990), J. Biol. Chem., 273, 433 (1998)].
# As substrates, the following unlabeled oligosaccharides were used: lactose (Galβ1-4Glc), N-acetyllactosamine (Galβ1-4GlcNAc, hereinafter referred to as “LacNAc” in some cases), LNnT, LNT and lacto-N-neohexaose (Galβ1-4GlcNACβ1-3Galβ1-4GlcNAcβ1-3Galβ1-4Glc, hereinafter referred to as “LNnH”).
# as §1
# In identifying the product, coincidence of its elution time with that of a standard sugar chain was used as the index. As the standard sugar chains, GlcNAcβ1-3Galβ1-4Glc, GlcNAcβ1-3Galβ1-4GlcNAc and GlcNAcβ1-3Galβ1-4GlcNAcβ1-3Galβ1-4Glc were used.
# β3GnT = molecular target: T2, β3GnT (Homo sapiens, UniProt Q9NY97); conditions: reported values, Proc. Natl. Acad. Sci. USA, 96, 406 (1999), cited from earlier work
# T2 sequence (Q9NY97 1-397): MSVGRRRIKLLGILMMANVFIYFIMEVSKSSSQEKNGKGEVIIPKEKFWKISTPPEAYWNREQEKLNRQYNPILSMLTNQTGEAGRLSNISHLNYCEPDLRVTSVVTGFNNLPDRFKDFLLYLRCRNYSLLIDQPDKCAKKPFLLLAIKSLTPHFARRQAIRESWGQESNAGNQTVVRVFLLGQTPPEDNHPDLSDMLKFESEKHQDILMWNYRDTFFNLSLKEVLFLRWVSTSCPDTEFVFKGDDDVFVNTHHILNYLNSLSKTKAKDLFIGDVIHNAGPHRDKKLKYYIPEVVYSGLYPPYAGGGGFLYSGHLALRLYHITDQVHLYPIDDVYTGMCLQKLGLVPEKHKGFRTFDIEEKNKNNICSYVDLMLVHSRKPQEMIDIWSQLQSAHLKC
SMILES,Relative activity (%) [1] [%],Relative activity (%) [2] [%],Relative activity (%) β3GnT (β3GnT; Table 4) [%],Relative activity (%) β3GnT (β3GnT; Table 6) [%],conversion ratio of the substrate into the product ([1]; pyridylaminated LNnT as substrate) [%],conversion ratio of the substrate into the product ([2]; unlabeled LNnT as substrate) [%]
"CC(=O)N[C@H]1[C@H](O[C@H]2[C@@H](O)[C@@H](CO)O[C@@H](O[C@H]3[C@H](O)[C@@H](O)C(O)O[C@@H]3CO)[C@@H]2O)O[C@H](CO)[C@@H](O)[C@@H]1O[C@@H]1O[C@H](CO)[C@H](O)[C@H](O)[C@H]1O (stereo partly shown) [LNT, lacto-N-tetraose]",84.5,114,6,6,,
"CC(=O)N[C@H]1[C@H](O[C@H]2[C@@H](O)[C@@H](CO)O[C@@H](O[C@H]3[C@H](O)[C@@H](O)C(O)O[C@@H]3CO)[C@@H]2O)O[C@H](CO)[C@@H](O[C@@H]2O[C@H](CO)[C@H](O)[C@H](O)[C@H]2O)[C@@H]1O (mixture of isomers) [LNnT, lacto-N-neotetraose]",100,100,100,100,12.9,1.7
